Assay results reported in PubChem BioAssay (NCI).
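How tested: cells in 96-well plates exposed to compound for 48 hours at five concentrations. Definition used: TGI = concentration required for complete inhibition of growth.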

What was measured:
Experiment in all cases: growth of human tumour cells (NCI), 48 h
[1] = system: SK-MEL-28 melanoma
[2] = system: SK-OV-3 ovarian
[3] = system: HOP-92 NSCLC
[4] = system: T-47D breast
[5] = system: NCI-H522 lung
[6] = system: SR leukemia
[7] = system: NCI/ADR-RES ovarian
[8] = system: OVCAR-8 ovarian
[9] = system: SK-MEL-5 melanoma
[10] = system: MCF7 breast
[11] = system: RPMI-8226 leukemia
[12] = system: COLO 205 colon
[13] = system: SNB-19 CNS
[14] = system: OVCAR-3 ovarian

O=[N+]([O-])c1ccc2nc(/C=C(\O)c3ccc(F)cc3)c(/C=C(\O)c3ccc(F)cc3)nc2c1
TGI [1]: > 100 µM | TGI [2]: 47.5 µM | TGI [3]: > 100 µM | TGI [4]: > 100 µM | TGI [5]: > 100 µM | TGI [6]: 40.9 µM | TGI [7]: > 100 µM | TGI [8]: > 100 µM | TGI [9]: > 100 µM | TGI [10]: > 100 µM | TGI [11]: > 100 µM | TGI [12]: > 100 µM | TGI [13]: > 100 µM | TGI [14]: > 100 µM

C1=C\CCCCN2C[C@H]3CCCC/C=C\CCCCN4CC[C@@H]([C@H](CCCCCC/1)C4)[C@H](C3)C2
TGI [1]: 3.89 µM | TGI [2]: 22.8 µM | TGI [3]: > 20.2 µM | TGI [4]: 4.6 µM | TGI [5]: 3.33 µM | TGI [6]: > 19.8 µM | TGI [7]: 9.89 µM | TGI [8]: 7.74 µM | TGI [9]: 3.12 µM | TGI [10]: 4.5 µM | TGI [11]: 3.56 µM | TGI [12]: 4.03 µM | TGI [13]: 5.3 µM | TGI [14]: 3.48 µM

Cn1c(-c2cccs2)cc(-c2cccs2)c1-c1ccsc1
TGI [1]: > 100 µM | TGI [2]: > 100 µM | TGI [3]: > 100 µM | TGI [4]: > 100 µM | TGI [6]: > 100 µM | TGI [7]: > 100 µM | TGI [8]: > 100 µM | TGI [9]: > 100 µM | TGI [10]: > 100 µM | TGI [11]: > 100 µM | TGI [12]: > 100 µM | TGI [13]: > 100 µM | TGI [14]: 75.2 µM

Cc1cc2c(c(C=NCc3ccccc3)c1)OC1(C=C2)Oc2ccccc2C(=O)N1C (configuration not stated)
TGI [1]: > 100 µM | TGI [2]: > 100 µM | TGI [3]: 43 µM | TGI [4]: 45.9 µM | TGI [6]: 49.9 µM | TGI [7]: 48 µM | TGI [8]: 35.6 µM | TGI [9]: 50.3 µM | TGI [10]: > 100 µM | TGI [11]: 50.4 µM | TGI [12]: 39.8 µM | TGI [13]: > 100 µM | TGI [14]: > 100 µM

Cc1ccc(N=C2C(=O)C3=C(OC(C)(C)CC3)c3ccccc32)cc1
TGI [1]: 4.69 µM | TGI [2]: 3.1 µM | TGI [3]: 3.2 µM | TGI [4]: 1.37 µM | TGI [5]: 3 µM | TGI [6]: 1.6 µM | TGI [7]: 1.75 µM | TGI [9]: 2.28 µM | TGI [10]: 1.23 µM | TGI [11]: 0.933 µM | TGI [12]: 3.29 µM | TGI [13]: 2.26 µM | TGI [14]: 0.589 µM

COCCOCCOC1=C(Cl)C(=O)c2c(O)ccc(O)c2C1=O
TGI [1]: 5.12 µM | TGI [2]: 33.3 µM | TGI [3]: 3.95 µM | TGI [4]: 6.64 µM | TGI [5]: 2.99 µM | TGI [6]: 3.04 µM | TGI [7]: 9.14 µM | TGI [8]: 5.99 µM | TGI [9]: 3.79 µM | TGI [10]: 4.62 µM | TGI [11]: 3.07 µM | TGI [12]: 2.45 µM | TGI [13]: 27.1 µM | TGI [14]: 3.19 µM

COc1cc(COC(=O)N2CCC2C(=O)O)c([N+](=O)[O-])cc1OC (configuration not stated)
TGI [1]: > 100 µM | TGI [2]: > 100 µM | TGI [3]: > 100 µM | TGI [4]: > 100 µM | TGI [6]: > 100 µM | TGI [7]: > 100 µM | TGI [8]: > 100 µM | TGI [9]: > 100 µM | TGI [10]: > 100 µM | TGI [11]: > 100 µM | TGI [12]: > 100 µM | TGI [13]: > 100 µM | TGI [14]: > 100 µM

CCC(CCCC[C@@H]1CC[C@H]2CC(=O)C[C@@H]12)OC (some centres not stated)
TGI [1]: > 100 µM | TGI [2]: > 100 µM | TGI [3]: > 100 µM | TGI [4]: > 100 µM | TGI [5]: > 100 µM | TGI [6]: > 100 µM | TGI [7]: > 100 µM | TGI [8]: > 100 µM | TGI [9]: > 100 µM | TGI [10]: > 100 µM | TGI [11]: > 100 µM | TGI [12]: > 100 µM | TGI [13]: > 100 µM | TGI [14]: > 100 µM

COc1cccc(NC(=O)CC(=O)N2N=C(C)C(N=Nc3ccc(S(=O)(=O)c4ccc(N=NC5C(=O)N(C(=O)CC(=O)Nc6cccc(OC)c6)N=C5C)cc4)cc3)C2=O)c1 (configuration not stated)
TGI [1]: > 100 µM | TGI [2]: > 100 µM | TGI [3]: > 100 µM | TGI [4]: > 100 µM | TGI [5]: > 100 µM | TGI [6]: > 100 µM | TGI [7]: > 100 µM | TGI [8]: > 100 µM | TGI [9]: > 100 µM | TGI [10]: > 100 µM | TGI [11]: > 100 µM | TGI [12]: > 100 µM | TGI [13]: > 100 µM | TGI [14]: > 100 µM

COc1ccc(-c2cc(-c3cc(OC)c(OC)c(OC)c3)cc(-c3cc4ccccc4oc3=O)n2)cc1
TGI [2]: 14.5 µM | TGI [3]: 16.8 µM | TGI [4]: 26 µM | TGI [5]: 34.5 µM | TGI [6]: > 100 µM | TGI [7]: 31.6 µM | TGI [8]: 16.3 µM | TGI [9]: 18.6 µM | TGI [10]: > 100 µM | TGI [12]: > 100 µM | TGI [13]: 37.7 µM | TGI [14]: 68.3 µM

S=C1N=C(Cl)C2(NN1)c1ccccc1-c1ccccc12
TGI [1]: > 10 µM | TGI [2]: > 10 µM | TGI [3]: > 10 µM | TGI [4]: > 10 µM | TGI [6]: > 10 µM | TGI [7]: > 10 µM | TGI [8]: > 10 µM | TGI [9]: > 10 µM | TGI [10]: > 10 µM | TGI [11]: > 10 µM | TGI [12]: > 10 µM

O=[N+]([O-])c1cccnc1NCC1(CO)CC(Cc2ccccc2)C1 (configuration not stated)
TGI [1]: > 100 µM | TGI [2]: > 100 µM | TGI [3]: 60.1 µM | TGI [4]: > 100 µM | TGI [5]: > 100 µM | TGI [6]: > 100 µM | TGI [7]: > 100 µM | TGI [8]: > 100 µM | TGI [9]: > 100 µM | TGI [10]: > 100 µM | TGI [11]: > 100 µM | TGI [12]: > 100 µM | TGI [14]: > 100 µM

COCc1cc2c(cc1/C=C/[N+](=O)[O-])OCO2
TGI [1]: 25.2 µM | TGI [2]: 31.9 µM | TGI [3]: 36.8 µM | TGI [4]: 41.8 µM | TGI [5]: 41.2 µM | TGI [6]: > 100 µM | TGI [7]: 47 µM | TGI [8]: 55.2 µM | TGI [9]: 37.6 µM | TGI [10]: 48.9 µM | TGI [11]: > 100 µM | TGI [12]: 38.4 µM | TGI [14]: 33.7 µM

CC(C)=CCC/C(C)=C/CC/C(C)=C/CC/C(C)=C/CC/C(C)=C\CC/C(C)=C/CC/C(C)=C/CC/C(C)=C/Cc1cc(O)ccc1O
TGI [1]: > 100 µM | TGI [2]: 15.6 µM | TGI [3]: > 32.8 µM | TGI [4]: 50.1 µM | TGI [5]: 4.34 µM | TGI [6]: 1.8 µM | TGI [7]: 1.92 µM | TGI [8]: 3.42 µM | TGI [10]: 2.89 µM | TGI [12]: > 100 µM | TGI [13]: > 43.6 µM | TGI [14]: 1.94 µM

O=C(CC(C(=O)c1ccoc1)c1ccco1)c1ccco1 (configuration not stated)
TGI [1]: > 100 µM | TGI [2]: > 100 µM | TGI [3]: > 100 µM | TGI [4]: > 100 µM | TGI [5]: > 100 µM | TGI [6]: > 100 µM | TGI [7]: > 100 µM | TGI [8]: > 100 µM | TGI [9]: > 100 µM | TGI [10]: > 100 µM | TGI [11]: > 100 µM | TGI [12]: > 100 µM | TGI [14]: > 100 µM

c1ccc(CSc2nc(N3CCOCC3)c3cn[nH]c3n2)cc1
TGI [1]: 43.4 µM | TGI [2]: > 100 µM | TGI [4]: 68.5 µM | TGI [5]: 33.1 µM | TGI [6]: 63.6 µM | TGI [7]: 55.6 µM | TGI [8]: 89.1 µM | TGI [9]: 30.9 µM | TGI [10]: > 100 µM | TGI [11]: 35.2 µM | TGI [12]: 30.4 µM | TGI [13]: 87.4 µM | TGI [14]: > 100 µM

COC(=O)CCC12CCC(O1)c1ccccc12 (configuration not stated)
TGI [1]: > 100 µM | TGI [2]: > 100 µM | TGI [3]: > 100 µM | TGI [4]: > 100 µM | TGI [5]: > 100 µM | TGI [6]: > 100 µM | TGI [7]: > 100 µM | TGI [8]: > 100 µM | TGI [9]: > 100 µM | TGI [10]: > 100 µM | TGI [11]: > 100 µM | TGI [12]: > 100 µM | TGI [13]: > 100 µM
